Data: patent US20030224978A1, “Compounds and methods for modulating apoptosis” (McGill University, priority 1996, published 2003)
“Also recorded” adds a separate entry of the source. Positions of bridges follow the written chain, without caps; N, C: chain ends. Residues, ends and D or L forms follow the SMILES beside them.

Legend:
chick N-cadherin = target: T1, chick N-cadherin (Gallus gallus, UniProt P10288); test: N-cadherin dependent neurite outgrowth of rat cerebellar neurons on N-cadherin expressing 3T3 cells (Example 14); format: cell-based; conditions: for inhibitory activity on N-cadherin dependent neurite outgrowth, in words: Tables 8 and 9, 250 or 125 μg/mL
T1 construct: expressed in transfected cells; host or cells: 3T3 fibroblasts
T1 sequence (P10288 165-912): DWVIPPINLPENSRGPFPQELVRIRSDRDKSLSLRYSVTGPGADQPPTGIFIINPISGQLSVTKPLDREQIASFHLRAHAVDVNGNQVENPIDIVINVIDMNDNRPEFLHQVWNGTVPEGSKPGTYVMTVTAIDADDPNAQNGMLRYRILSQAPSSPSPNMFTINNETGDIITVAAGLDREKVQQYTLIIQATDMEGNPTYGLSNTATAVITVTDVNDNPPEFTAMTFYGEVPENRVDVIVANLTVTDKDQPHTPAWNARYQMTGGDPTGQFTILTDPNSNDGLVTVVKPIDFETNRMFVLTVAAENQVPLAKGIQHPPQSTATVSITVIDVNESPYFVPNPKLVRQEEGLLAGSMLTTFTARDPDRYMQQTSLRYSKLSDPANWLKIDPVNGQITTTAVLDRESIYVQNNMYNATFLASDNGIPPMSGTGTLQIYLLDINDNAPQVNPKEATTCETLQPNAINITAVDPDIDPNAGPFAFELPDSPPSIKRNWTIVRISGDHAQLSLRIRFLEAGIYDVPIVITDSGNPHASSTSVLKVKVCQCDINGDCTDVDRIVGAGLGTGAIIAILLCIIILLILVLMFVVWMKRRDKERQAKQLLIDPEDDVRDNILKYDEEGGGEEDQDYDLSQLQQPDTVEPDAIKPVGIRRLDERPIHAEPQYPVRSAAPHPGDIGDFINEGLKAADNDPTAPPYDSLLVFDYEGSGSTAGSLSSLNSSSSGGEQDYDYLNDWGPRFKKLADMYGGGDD

HMVEC = format: cell-based, human; conditions: 3 h
Experimental: (§1) N-Ac-CHAVC-NH2 (SEQ ID NO:10) and the control peptide N-Ac-CHGVC-NH2 (SEQ ID NO:20) were evaluated for possible cytotoxic effects on human microvascular endothelial (HMVEC; Clonetics), human umbilical vein endothelial (HUVEC; ATCC #CRL-1730), IAFp2 (human fibroblast cell line; Institute Armand-Frapier, Montreal, Quebec), WI-38 (human fibroblast cell line; ATCC #CCL-75), MDA-MB231 (human breast cancer cell line; ATCC #HTB-26), and PC-3 (human prostate cancer cell line; ATCC #CRL-1435) cells utilizing the MTT assay (Plumb et al., Cancer Res. 49:4435-4440, 1989). Neither of the peptides was cytotoxic at concentrations up to and including 100 μM. Similarly, neither of the peptides was capable of inhibiting the proliferation of the above cell lines at concentrations up to 100 μM, as judged by ^3H-thymidine incorporation assays.

IAFp2 = format: cell-based, human; conditions: 3 h
Experimental: as §1

PC-3 = format: cell-based, human; conditions: 3 h
Experimental: as §1

WI-38 = format: cell-based, human; conditions: 3 h
Experimental: as §1

inhibition at 250 µg/mL (chick N-cadherin; NIH3T3, 250 μg/mL, 16-18 hours) [%]	activity on N-cadherin dependent neurite outgrowth at lower concentration, in words (chick N-cadherin; concentrations of 125 µg/mL or below)	IC50 (HMVEC) [µM]	IC50 (IAFp2) [µM]	IC50 (PC-3) [µM]	% Inhibition of N-cadherin dependent neurite outgrowth (chick N-cadherin; 250 μg/mL, 16-18 hours)	inhibition at 125 µg/mL (chick N-cadherin; NIH3T3, 125 μg/mL, 16-18 hours) [%]	EC50 (chick N-cadherin; from dose-response curve) [µM]	reduction in inhibitory activity on flanking HAV with E-cadherin amino acids (chick N-cadherin; Table 8, 250 μg/mL)	SMILES	inhibitory activity on N-cadherin dependent neurite outgrowth, in words (chick N-cadherin)	IC50 (WI-38) [µM]	effect on the N-cadherin response, in words (chick N-cadherin; concentrations up to 62 μg/ml)
4.8 ± 5.3		> 100	> 100	> 100					CC(=O)N[C@H]1CSSC[C@@H](C(N)=O)NC(=O)[C@H](C(C)C)NC(=O)CNC(=O)[C@H](Cc2c[nH]cn2)NC1=O [N-Ac-CHGVC-NH2, reference compound]		> 100	
-2.5 ± 7.4								complete	CC(=O)N[C@H]1CSSC[C@@H](C(N)=O)NC(=O)[C@H](CO)NC(=O)[C@H](C(C)C)NC(=O)[C@H](C)NC(=O)[C@H](Cc2c[nH]cn2)NC1=O [N-Ac-CHAVSC-NH2, N-Ac-Cys-His-Ala-Val-Ser-Cys-NH2] (Ac-CHAVSC-NH2; disulfide 1-6)			

Continued, molecule first:

SMILES	inhibition at 250 µg/mL (chick N-cadherin; NIH3T3, 250 μg/mL, 16-18 hours) [%]	activity on N-cadherin dependent neurite outgrowth at lower concentration, in words (chick N-cadherin; concentrations of 125 µg/mL or below)	IC50 (HMVEC) [µM]	IC50 (IAFp2) [µM]	IC50 (PC-3) [µM]	% Inhibition of N-cadherin dependent neurite outgrowth (chick N-cadherin; 250 μg/mL, 16-18 hours)	inhibition at 125 µg/mL (chick N-cadherin; NIH3T3, 125 μg/mL, 16-18 hours) [%]	EC50 (chick N-cadherin; from dose-response curve) [µM]	reduction in inhibitory activity on flanking HAV with E-cadherin amino acids (chick N-cadherin; Table 8, 250 μg/mL)	inhibitory activity on N-cadherin dependent neurite outgrowth, in words (chick N-cadherin)	IC50 (WI-38) [µM]	effect on the N-cadherin response, in words (chick N-cadherin; concentrations up to 62 μg/ml)
CC[C@H](C)[C@@H]1NC(=O)[C@H](CC(=O)O)NC(=O)[C@H](C(C)C)NC(=O)[C@H](C)NC(=O)[C@H](Cc2c[nH]cn2)NC(=O)[C@H](C)NC(=O)[C@@H](NC(C)=O)CSSC[C@@H](C(N)=O)NC1=O (Ac-CAHAVDIC-NH2; disulfide 1-8)	89.4	lost activity								reduced, but did not eliminate, the activity; also recorded: potent inhibitors of neurite outgrowth		
CC(=O)N[C@H]1CSSC[C@@H](C(N)=O)NC(=O)[C@H](C(C)C)NC(=O)[C@H](C)NC(=O)[C@H](Cc2c[nH]cn2)NC1=O [N-Ac-CHAVC-NH2, N-Ac-Cys-His-Ala-Val-Cys-NH2]	68.2		> 100	> 100	> 100	68.2 ± 5.1 (4) %	33.2	220			> 100	no significant effect on the N-cadherin response
CC(=O)N[C@H]1CSSC[C@@H](C(N)=O)NC(=O)[C@H](CC(=O)O)NC(=O)[C@H](C(C)C)NC(=O)[C@H](C)NC(=O)[C@H](Cc2c[nH]cn2)NC(=O)[C@H](C)NC1=O [N-Ac-CAHAVDC-NH2, N-Ac-Cys-Ala-His-Ala-Val-Asp-Cys-NH2] (Ac-CAHAVDC-NH2; disulfide 1-7)	13.3 ± 8.3									completely eliminated inhibitory activity		
